The values below come from patent US9221808B2, “Pyridylthiazole-based ureas as inhibitors of Rho associated protein kinase (ROCK) and methods of use” (H. Lee Moffitt Cancer Center and Research Institute, Inc., priority 2010, dated 2015).

As a reminder, the IC50 is the concentration that gives 50% inhibition.

One assay addresses ROCK1 (Homo sapiens (Human), UniProt Q13464). Nature of the assay: FRET-based Z'-Lyte kinase assay, ROCK1.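 As to all read-outs here: kinase phosphorylates a coumarin/fluorescein-labelled FRET peptide, then a protease cleaves unphosphorylated peptide, progress read as donor to acceptor emission ratio after 400 nm excitation.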 Format: biochemical. The conditions noted are these: for IC50: read-out: IC50 ± SD (μM) ROCK1; for fold decrease in ROCK1 activity/potency compared to parent compound 1aa: comparator 1aa; for fold decrease in activity compared to 1bo: comparator 1bo (comparator for 1bn not stated).

Another assay has as its target ROCK2 (Homo sapiens (Human), UniProt O75116). The assay can be described thus: FRET-based Z'-Lyte kinase assay, ROCK2.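 Also: kinase phosphorylates a coumarin/fluorescein FRET peptide, then a protease cleaves unphosphorylated peptide, read as donor/acceptor emission ratio after 400 nm excitation.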 The conditions noted are these: read-out: IC50 ± SD (μM) ROCK2. Format: biochemical.

Sequence of ROCK1 (Q13464 whole entry, species assumed): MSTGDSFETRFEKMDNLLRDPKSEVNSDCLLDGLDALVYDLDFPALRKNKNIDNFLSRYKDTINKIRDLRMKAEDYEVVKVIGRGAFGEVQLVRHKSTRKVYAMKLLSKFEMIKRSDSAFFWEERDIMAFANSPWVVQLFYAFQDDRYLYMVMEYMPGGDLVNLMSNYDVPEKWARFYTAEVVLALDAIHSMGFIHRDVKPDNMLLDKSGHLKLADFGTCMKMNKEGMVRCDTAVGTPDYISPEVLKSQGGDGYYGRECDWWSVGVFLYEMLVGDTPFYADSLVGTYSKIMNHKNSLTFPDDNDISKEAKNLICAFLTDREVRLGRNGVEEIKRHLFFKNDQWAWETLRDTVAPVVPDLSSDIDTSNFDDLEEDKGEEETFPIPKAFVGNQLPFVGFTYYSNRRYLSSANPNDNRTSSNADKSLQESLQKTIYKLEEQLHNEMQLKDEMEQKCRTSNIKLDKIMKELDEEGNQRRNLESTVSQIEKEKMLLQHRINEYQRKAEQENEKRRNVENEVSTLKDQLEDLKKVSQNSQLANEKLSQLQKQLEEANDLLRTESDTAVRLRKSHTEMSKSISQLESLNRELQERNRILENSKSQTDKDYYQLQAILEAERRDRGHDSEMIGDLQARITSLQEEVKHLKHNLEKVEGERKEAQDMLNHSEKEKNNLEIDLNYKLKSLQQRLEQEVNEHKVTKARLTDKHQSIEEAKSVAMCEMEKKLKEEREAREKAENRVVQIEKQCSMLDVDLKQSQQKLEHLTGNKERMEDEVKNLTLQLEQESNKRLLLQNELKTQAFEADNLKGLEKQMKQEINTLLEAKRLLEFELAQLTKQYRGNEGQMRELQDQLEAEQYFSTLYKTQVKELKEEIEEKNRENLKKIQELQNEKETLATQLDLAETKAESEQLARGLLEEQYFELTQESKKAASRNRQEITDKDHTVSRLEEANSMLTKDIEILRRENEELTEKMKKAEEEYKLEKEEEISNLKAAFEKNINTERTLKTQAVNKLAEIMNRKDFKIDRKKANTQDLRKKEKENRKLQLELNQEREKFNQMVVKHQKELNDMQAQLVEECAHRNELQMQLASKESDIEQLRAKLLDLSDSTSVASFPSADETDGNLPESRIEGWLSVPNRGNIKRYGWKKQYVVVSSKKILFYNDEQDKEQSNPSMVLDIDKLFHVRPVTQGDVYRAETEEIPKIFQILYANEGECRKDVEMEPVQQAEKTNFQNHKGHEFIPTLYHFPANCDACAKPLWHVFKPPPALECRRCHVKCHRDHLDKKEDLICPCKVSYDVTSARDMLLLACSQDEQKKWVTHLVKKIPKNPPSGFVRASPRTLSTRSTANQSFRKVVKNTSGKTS
Sequence of ROCK2 (O75116 whole entry, species assumed): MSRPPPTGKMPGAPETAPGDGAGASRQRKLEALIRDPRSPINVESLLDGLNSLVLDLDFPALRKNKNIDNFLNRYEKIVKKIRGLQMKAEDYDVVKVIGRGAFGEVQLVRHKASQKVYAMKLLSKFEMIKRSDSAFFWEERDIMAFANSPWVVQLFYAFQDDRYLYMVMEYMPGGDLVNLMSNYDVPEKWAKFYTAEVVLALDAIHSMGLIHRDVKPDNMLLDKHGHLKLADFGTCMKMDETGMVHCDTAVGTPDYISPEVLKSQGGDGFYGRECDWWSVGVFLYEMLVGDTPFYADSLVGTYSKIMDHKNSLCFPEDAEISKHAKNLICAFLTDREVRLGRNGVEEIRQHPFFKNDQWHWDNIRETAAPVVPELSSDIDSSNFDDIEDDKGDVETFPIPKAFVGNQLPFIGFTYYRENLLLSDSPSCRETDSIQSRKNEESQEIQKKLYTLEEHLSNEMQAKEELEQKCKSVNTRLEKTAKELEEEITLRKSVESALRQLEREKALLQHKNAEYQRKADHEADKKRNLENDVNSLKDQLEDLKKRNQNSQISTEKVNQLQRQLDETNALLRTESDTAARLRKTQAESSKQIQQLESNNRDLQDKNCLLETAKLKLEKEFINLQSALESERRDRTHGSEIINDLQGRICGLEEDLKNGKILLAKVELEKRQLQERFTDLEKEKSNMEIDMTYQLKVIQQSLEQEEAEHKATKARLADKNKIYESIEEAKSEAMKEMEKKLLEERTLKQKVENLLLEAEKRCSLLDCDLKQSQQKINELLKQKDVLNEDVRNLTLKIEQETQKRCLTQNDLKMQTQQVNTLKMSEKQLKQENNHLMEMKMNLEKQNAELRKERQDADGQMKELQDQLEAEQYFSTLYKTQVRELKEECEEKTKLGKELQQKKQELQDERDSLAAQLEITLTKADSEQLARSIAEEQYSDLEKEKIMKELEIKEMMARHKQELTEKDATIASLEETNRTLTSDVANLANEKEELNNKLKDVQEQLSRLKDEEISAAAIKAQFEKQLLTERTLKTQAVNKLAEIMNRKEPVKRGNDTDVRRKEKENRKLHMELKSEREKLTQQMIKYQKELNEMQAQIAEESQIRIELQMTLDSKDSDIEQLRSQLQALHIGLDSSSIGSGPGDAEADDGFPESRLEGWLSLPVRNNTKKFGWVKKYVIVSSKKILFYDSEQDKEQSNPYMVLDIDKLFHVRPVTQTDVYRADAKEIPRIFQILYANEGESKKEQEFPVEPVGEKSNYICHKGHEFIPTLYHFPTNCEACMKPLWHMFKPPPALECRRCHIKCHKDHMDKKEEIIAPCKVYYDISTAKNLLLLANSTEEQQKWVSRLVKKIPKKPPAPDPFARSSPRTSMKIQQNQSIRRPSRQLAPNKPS
Source text for ROCK1: (§1) A) In the primary reaction, the Rho kinases phosphorylates a single serine or threonine residue in a synthetic FRET-peptide. This FRET-peptide is doubly labeled with a fluorophore at each end—coumarin (the FRET donor) on one end and fluorescein (the FRET acceptor) on the other—and also contains a single phosphorylation site which either overlaps with or lies adjacent to the proteolytic site. B) In the secondary reaction, a site-specific protease recognizes and cleaves the non-phosphorylated FRET-peptide. Cleavage disrupts FRET between the donor and acceptor fluorophores on the FRET-peptide, whereas uncleaved, phosphorylated FRET-peptides maintain FRET. Kinases phosphorylated FRET-peptides cannot be cleaved by the protease. […] Cleavage disrupts FRET and causes a decrease in the fluorescein fluorescence signal and a strong increase in the coumarin fluorescence signal. Therefore the extension of the phosphprylation can be measured by FRET-signal remaining the protease reaction. The assay uses a ratiometric method, which calculates the ratio of donor emission to acceptor emission (the emission ratio) after excitation of the donor fluorophore at 400 nm, to quantitate reaction progress.
(§2) All compounds were systematically screened against ROCK1 and ROCK2.
Source text for ROCK2: as §1, §2

For `O=C(NCc1ccncc1)Nc1nc(-c2ccncc2)cs1` [Compound 1aq, 1-(4-(Pyridin-4-yl)thiazol-2-yl)-3-(pyridin-4-ylmethyl)urea], the concentration for half-maximal inhibition (IC50) is 2.07 ± 0.29 µM at ROCK1 and 1.47 ± 0.13 µM on ROCK2.
The matching figures for `CN(Cc1ccccc1)C(=O)Nc1nc(-c2ccncc2)cs1` [Compound 1au, 1-Benzyl-1-methyl-3-(4-(pyridin-4-yl)thiazol-2-yl)urea]: 0.11 ± 0.003 µM and 0.07 ± 0.015 µM.
Regarding `O=C(NCc1cccc2ccccc12)Nc1nc(-c2ccncc2)cs1` [Compound 1av, 1-(Naphthalen-1-ylmethyl)-3-(4-(pyridin-4-yl)thiazol-2-yl)urea], the IC50 at ROCK1 was determined as 1.1 ± 0.202 µM; at ROCK2, 0.58 ± 0.218 µM.
For the compound `O=C(NCCc1ccccc1)Nc1nc(-c2ccncc2)cs1` [Compound 1aw, 1-Phenethyl-3-(4-(pyridin-4-yl)thiazol-2-yl)urea], on ROCK1, the “fold decrease in ROCK1 activity/potency compared to parent compound 1aa” value (from here on “fold decrease in ROCK1 activity/potency”) amounted to 3 fold. The half-maximal inhibitory concentration (IC50) at ROCK1 was 0.48 ± 0.037 µM; on ROCK2, 0.38 ± 0.107 µM.
As to `O=C(NCc1ccc(O)cc1)Nc1nc(-c2ccncc2)cs1` [Compound 1ax, 1-(4-Hydroxybenzyl)-3-(4-(pyridin-4-yl)thiazol-2-yl)urea], the figures for the IC50 at ROCK1 and at ROCK2 were 0.38 ± 0.046 µM and 0.14 ± 0.029 µM, respectively.
Regarding `Nc1cccc(CNC(=O)Nc2nc(-c3ccncc3)cs2)c1` [Compound 1ay, 1-(3-Aminobenzyl)-3-(4-(pyridin-4-yl)thiazol-2-yl)urea], at ROCK1, the “fold decrease in activity compared to 1bo” value turned out to be 6 fold and the IC50 was found to be 0.05 ± 0.009 µM. The IC50 at ROCK2 came to 0.02 ± 0.008 µM.
Take `Cc1cccc(CNC(=O)Nc2nc(-c3ccncc3)cs2)c1` [Compound 1ba, 1-(3-Methylbenzyl)-3-(4-(pyridin-4-yl)thiazol-2-yl)urea]: on ROCK1, the “fold decrease in ROCK1 activity/potency” value was 3 fold and the IC50 amounted to 0.46 ± 0.08 µM. Besides, on ROCK2, the concentration for half-maximal inhibition (IC50) is 0.12 ± 0.03 µM.
As to `COc1cccc(CNC(=O)Nc2nc(-c3ccncc3)cs2)c1OC` [Compound 1bc, 1-(2,3-Dimethoxybenzyl)-3-(4-(pyridin-4-yl)thiazol-2-yl)urea], the 50% inhibitory concentration (IC50) at ROCK1 stood at 35.4 ± 6.78 µM; on ROCK2, 19.7 ± 2.94 µM.
As to `Cc1ccc(CNC(=O)Nc2nc(-c3ccncc3)cs2)cc1` [Compound 1bd, 1-(4-Methylbenzyl)-3-(4-(pyridin-4-yl)thiazol-2-yl)urea], the values for the half-maximal inhibitory concentration (IC50) on ROCK1 and at ROCK2 were 5.16 ± 0.51 µM and 2.05 ± 0.15 µM, respectively.
Regarding `CC[C@@H](NC(=O)Nc1nc(-c2ccncc2)cs1)c1ccccc1` [Compound 1be, (R)-1-(1-Phenylpropyl)-3-(4-(pyridin-4-yl)thiazol-2-yl)urea], the “fold decrease in ROCK1 activity/potency” value at ROCK1 came to 3.5 fold. In addition, on ROCK1 (comparator: enantiomer (1ai for 1ah, 1bf for 1be)), the “fold more potent/active than its enantiomer” value is given as 745 fold. For the same compound, the half-maximal inhibitory concentration (IC50) at ROCK1 turned out to be 0.09 ± 0.02 µM; on ROCK2, 0.03 ± 0.01 µM.
On to `CC[C@H](NC(=O)Nc1nc(-c2ccncc2)cs1)c1ccccc1` [Compound 1bf, (S)-1-(1-Phenylpropyl)-3-(4-(pyridin-4-yl)thiazol-2-yl)urea], for which the values for the concentration for half-maximal inhibition (IC50) on ROCK1 and at ROCK2 were 52.2 ± 3.64 µM and 22 ± 7.79 µM, respectively.
Taken in the same sequence, the figures for `COc1cccc([C@H](C)NC(=O)Nc2nc(-c3ccncc3)cs2)c1` [Compound 1bg, (S)-1-(1-(3-Methoxyphenyl)ethyl)-3-(4-(pyridin-4-yl)thiazol-2-yl)urea] were 18.7 ± 2.09 µM and 3.25 ± 0.96 µM.
Regarding `O=C(Nc1nc(-c2ccncc2)cs1)NC(c1ccccc1)c1ccccc1` [Compound 1bi, 1-Benzhydryl-3-(4-(pyridin-4-yl)thiazol-2-yl)urea], the “fold decrease in ROCK1 activity/potency” value on ROCK1 came out at 12 fold. Moreover, the IC50 came out at 1.87 ± 0.54 µM on ROCK1 and 0.53 ± 0.1 µM at ROCK2.
Turning to `COC[C@@H](NC(=O)Nc1nc(-c2ccncc2)cs1)c1ccccc1` [Compound 1bj, (S)-1-(2-Methoxy-1-phenylethyl)-3-(4-(pyridin-4-yl)thiazol-2-yl)urea], on ROCK1 (comparator 1at), the “fold loss of potency compared to 1at” value is reported as 3.5 fold. Further, the IC50 turned out to be 0.07 ± 0.005 µM at ROCK1 and 0.03 ± 0.009 µM on ROCK2.
As for `COC[C@H](NC(=O)Nc1nc(-c2ccncc2)cs1)c1ccccc1` [Compound 1bk, (R)-1-(2-Methoxy-1-phenylethyl)-3-(4-(pyridin-4-yl)thiazol-2-yl)urea], the results for the IC50 at ROCK1 and on ROCK2 were 29.5 ± 3.28 µM and 11.5 ± 1.24 µM, respectively.
The matching figures for `Nc1ccc(CNC(=O)Nc2nc(-c3ccncc3)cs2)cc1` [Compound 1bl, 1-(4-Aminobenzyl)-3-(4-(pyridin-4-yl)thiazol-2-yl)urea]: 45.9 ± 5.15 µM and 17.4 ± 3.79 µM.
Regarding `COCCOc1cccc(CNC(=O)Nc2nc(-c3ccncc3)cs2)c1` [Compound 1bm, 1-(3-(2-Methoxyethoxy)benzyl)-3-(4-(pyridin-4-yl)thiazol-2-yl)urea], the values for the IC50 at ROCK1 and at ROCK2 were 0.5 ± 0.05 µM and 0.24 ± 0.03 µM, respectively.
Regarding `O=C(NCc1cccc2[nH]ccc12)Nc1nc(-c2ccncc2)cs1` [Compound 1bn, 1-((1H-indol-4-yl)methyl)-3-(4-(pyridin-4-yl)thiazol-2-yl)urea], at ROCK1, the “fold decrease in activity compared to 1bo” value came out at 470 fold and the IC50 was 37.8 ± 7.81 µM. Besides, the IC50 on ROCK2 was found to be 31.1 ± 9.14 µM.
As to `O=C(NCc1ccccc1O)Nc1nc(-c2ccncc2)cs1` [Compound 1bp, 1-(2-Hydroxybenzyl)-3-(4-(pyridin-4-yl)thiazol-2-yl)urea], the half-maximal inhibitory concentration (IC50) was determined as 0.62 ± 0.019 µM on ROCK1 and 0.28 ± 0.05 µM on ROCK2.
The matching figures for `CNc1cccc(CNC(=O)Nc2nc(-c3ccncc3)cs2)c1` [Compound 1bq, 1-(3-(Methylamino)benzyl)-3-(4-(pyridin-4-yl)thiazol-2-yl)urea]: 0.47 ± 0.013 µM and 0.24 ± 0.04 µM.
Take `O=C(NCc1cccc(OC(F)F)c1)Nc1nc(-c2ccncc2)cs1` [Compound 1bs, 1-(3-(Difluoromethoxy)benzyl)-3-(4-(pyridin-4-yl)thiazol-2-yl)urea]: the IC50 on ROCK1 came out at 0.92 ± 0.1 µM; on ROCK2 it was 0.35 ± 0.08 µM.
The matching figures for `Cc1ccccc1CNC(=O)Nc1nc(-c2ccncc2)cs1` [Compound 1bt, 1-(2-Methylbenzyl)-3-(4-(pyridin-4-yl)thiazol-2-yl)urea]: 0.15 ± 0.03 µM and 0.12 ± 0.02 µM.
Taken in the same sequence, the figures for `CC(C)Oc1cccc(CNC(=O)Nc2nc(-c3ccncc3)cs2)c1` [Compound 1bu, 1-(3-Isopropoxybenzyl)-3-(4-(pyridin-4-yl)thiazol-2-yl)urea] were 13 ± 1.38 µM and 3.44 ± 0.87 µM.
Consider `NC(=O)[C@H](NC(=O)Nc1nc(-c2ccncc2)cs1)c1ccccc1` [Compound 1bv, (R)-2-Phenyl-2-(3-(4-(pyridin-4-yl)thiazol-2-yl)ureido)acetamide], for which the half-inhibitory concentration (IC50) at ROCK1 was determined as 3.7 ± 0.5 µM; on ROCK2, 2.1 ± 0.36 µM.
With `CCOc1cccc(CNC(=O)Nc2nc(-c3ccncc3)cs2)c1` [Compound 1bw, 1-(3-ethoxybenzyl)-3-(4-(pyridin-4-yl)thiazol-2-yl)urea], the IC50 on ROCK1 is 2.14 ± 0.62 µM; on ROCK2, 0.29 ± 0.17 µM.
As to `CCCOc1cccc(CNC(=O)Nc2nc(-c3ccncc3)cs2)c1` [Compound 1bx, 1-(3-propoxybenzyl)-3-(4-(pyridin-4-yl)thiazol-2-yl)urea], the IC50 at ROCK1 was 3.36 ± 1 µM; on ROCK2, 0.68 ± 0.43 µM.
Taken in the same sequence, the figures for `COc1ccc([C@@H](C)NC(=O)Nc2nc(-c3ccncc3)cs2)cc1` [Compound 1bz, (R)-1-(1-(4-methoxyphenyl)ethyl)-3-(4-(pyridin-4-yl)thiazol-2-yl)urea] were > 50 µM and 11.9 ± 4.69 µM.
